From PubChem BioAssay (NCI)
Where “and” joins values, the source holds several entries; their conditions need not be identical. Equal entries are not always repeated.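 Assay format: 96-well plates, 48-hour exposure. At the GI50, growth is halved. At the TGI there is no net growth.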

Tests used:
Test in all cases: NCI tumour cell line growth inhibition, 48 h
UO-31 renal = system: UO-31 renal
U251 CNS = system: U251 CNS
M14 melanoma = system: M14 melanoma
MOLT-4 leukemia = system: MOLT-4 leukemia
IGROV1 ovarian = system: IGROV1 ovarian
A498 renal = system: A498 renal
SR leukemia = system: SR leukemia
OVCAR-3 ovarian = system: OVCAR-3 ovarian
MDA-MB-435 = system: MDA-MB-435
MDA-MB-231 breast = system: MDA-MB-231 breast

| SMILES | TGI (UO-31 renal) | TGI (U251 CNS) | TGI (M14 melanoma) | TGI (MOLT-4 leukemia) [µM] | TGI (IGROV1 ovarian) | TGI (A498 renal) | TGI (SR leukemia) [µM] | TGI (OVCAR-3 ovarian) | GI50 (UO-31 renal) | GI50 (M14 melanoma) | GI50 (IGROV1 ovarian) | TGI (MDA-MB-435) [µM] | GI50 (A498 renal) [µM] | GI50 (SR leukemia) [µM] | GI50 (OVCAR-3 ovarian) [µM] | GI50 (U251 CNS) [µM] | GI50 (MDA-MB-231 breast) [µM] | TGI (MDA-MB-231 breast) [µM] | GI50 (MOLT-4 leukemia) [µM] | GI50 (MDA-MB-435) [µM] |
| --- | --- | --- | --- | --- | --- | --- | --- | --- | --- | --- | --- | --- | --- | --- | --- | --- | --- | --- | --- | --- |
| Nc1nncc2c1c(Br)cn2C1OC(CO)C(O)C1O (stereo not drawn) | > 100 µM | > 100 µM | > 100 µM | > 100 | > 100 µM | > 100 µM | > 100 | > 100 µM |  |  |  |  |  |  |  |  |  |  |  |  |
| CC(=O)OCC1OC(n2c(=S)n(-c3ccc([N+](=O)[O-])cc3)c(=O)c3ccccc32)C(OC(C)=O)C(OC(C)=O)C1OC(C)=O (stereo not drawn) | > 57.5 µM and 60.1 µM | 42 µM and 37.8 µM | 48.8 µM and > 100 µM | > 95.1 | > 71 µM and 54.5 µM | > 76.2 µM and 53.6 µM | > 100 | 47.5 µM and 49.8 µM | 12 µM and 23.2 µM | 16 µM and 30.7 µM | 29.2 µM and 20.4 µM | > 100 | 21.9 | 4.67 | 20 |  |  |  |  |  |
| CC(C)(CN1C(=O)C(Cl)=C(Cl)C1=O)CN1C(=O)C(Cl)=C(Cl)C1=O | 47.2 µM | 38.7 µM | 38.2 µM | 30.1 | 40.4 µM | > 59 µM | 36 | 23.2 µM |  |  |  |  |  |  |  |  |  |  |  |  |
| O=C(c1ccc(O)cc1O)C1C(c2ccc(O)cc2)OC(c2ccc(O)cc2)C1C(=O)c1ccc(O)cc1O (stereo not drawn) | 76.9 µM | 32.9 µM | 34.5 µM |  |  |  |  | 40 µM |  |  |  |  |  |  |  |  |  |  |  |  |
| Cc1cc(=O)oc2ccc(OC/C=C3\CCC(=O)O3)cc12 | 10.2 µM | 24.6 µM | 5.37 µM | > 100 | 16.4 µM | 50.6 µM |  | 18.4 µM | 2.09 µM | 1.75 µM | 3.3 µM | 22.8 | 12.3 |  | 3.59 | 12.2 | 13.2 | 27 | 3.05 | 7.65 |
| Cn1c(CBr)nc2c1C(=O)c1nc(CBr)[nH]c(=O)c1C2=O | > 100 µM | > 100 µM | > 100 µM | > 100 | > 100 µM | > 100 µM |  |  |  |  |  |  |  |  |  |  |  |  |  |  |
| COC1C2C[C@@H](O)CCC2C(C(=O)OCCl)C[C@H]1O (stereo partly drawn) | > 100 µM | > 100 µM | > 100 µM | > 100 | > 100 µM | > 100 µM | > 100 | > 100 µM |  |  |  |  |  |  |  |  |  |  |  |  |
| CSc1ccc(C2=C(c3ccccc3)C(=O)OC2)cc1 | > 80.3 µM | 7.05 µM | > 46.1 µM | > 100 | > 63.9 µM | 13.9 µM |  | 0.568 µM | 2.66 µM | 0.483 µM | 2.18 µM | 0.364 | 3.13 |  | 0.188 | 0.329 | 0.425 | 20.9 | 0.174 | 0.0923 |
| Cc1ccc(NC(=O)CCCC(=O)CC(=O)c2ccc(Br)cc2)cc1 | > 100 µM | > 100 µM | > 100 µM | > 100 | > 100 µM | > 100 µM | > 100 | > 100 µM |  |  |  |  |  |  |  |  |  |  |  |  |
| Cc1nc(N)nc(N)c1CCCCc1ccc(N)cc1 | > 100 µM | 17.6 µM | 18.4 µM | 35.2 | 21.2 µM |  | 24.7 | 20.9 µM |  |  |  |  |  |  |  |  |  |  |  |  |
| COc1cc2cc(Oc3ccc(NC(=O)Nc4cc(C(F)(F)F)cc(C(F)(F)F)c4)cc3)c(C)nc2cc1OCCN1CCOCC1 | 4.06 µM | 2.85 µM | 5.88 µM | 4.29 | 6.9 µM | 6.69 µM |  | 5.28 µM | 1.01 µM | 1.51 µM | 1.54 µM | 6.72 | 1.8 |  | 1.43 | 1.13 | 1.7 | 6.45 | 1.32 | 1.9 |
| NC(=O)c1ccc2c(c1)-c1nc-2nc2[n-]c(nc3nc(nc4[n-]c(n1)c1ccc(C(N)=O)cc41)-c1ccc(C(N)=O)cc1-3)c1ccc(C(N)=O)cc21.[Co+2] |  | > 50 µM | > 50 µM | > 50 | > 50 µM | > 50 µM | > 50 | > 50 µM |  | 26 µM | > 50 µM |  | > 50 | 33.3 | > 50 | > 50 |  |  | > 50 |  |
| Cc1ccc(NC(=O)CCc2nc(=S)[nH][nH]2)cc1 | > 100 µM | > 100 µM | > 100 µM | > 100 | > 100 µM | > 100 µM | > 100 | > 100 µM |  |  |  |  |  |  |  |  |  |  |  |  |
| CC(C)N(C(=O)C12C3C4C1C1C2C3C41C#N)C(C)C (stereo not drawn) | > 100 µM | > 100 µM | > 100 µM | > 100 | > 100 µM | > 100 µM | 45 | > 100 µM |  |  |  |  |  |  |  |  |  |  |  |  |
| COc1cc[c]([Sn]([c]2ccc(OC)cc2)([c]2ccc(OC)cc2)[c]2ccc(OC)cc2)cc1 | 38 µM | 72.2 µM | 36 µM | 39 | > 100 µM | 76.3 µM |  | 33.7 µM | 14.1 µM | 16.7 µM | 25.9 µM |  | 14.2 |  | 12.5 | 20.8 |  |  | 10.7 |  |
| O=C(CS(=O)(=O)c1nc2ccccc2nc1-c1ccccc1)Nc1ccc(F)cc1 | > 100 µM | > 100 µM | > 100 µM |  | > 100 µM | > 100 µM |  | > 100 µM | 59.1 µM | > 100 µM | 74 µM | > 100 | 21.6 |  | 30.6 | 37.9 | 34.7 | > 100 |  | 88 |
| Oc1ccc(Br)cc1C=Nc1cccc(C(F)(F)F)c1 | > 100 µM | 45.1 µM | 48.6 µM | 83.8 | > 100 µM | > 100 µM |  | > 100 µM |  |  |  | > 100 |  |  |  |  |  | > 100 |  |  |
| CN=c1ss/c(=N\C(=S)N(C)C)n1C | > 100 µM | > 100 µM | > 100 µM | > 100 | > 100 µM | > 100 µM | > 100 |  |  |  |  |  |  |  |  |  |  |  |  |  |
| CCCNC(=O)Nc1c([N+](=O)[O-])cc(C(F)(F)F)cc1[N+](=O)[O-] | > 100 µM | > 100 µM | > 100 µM | > 100 | > 100 µM | > 100 µM | > 100 | 61.2 µM |  |  |  |  |  |  |  |  |  |  |  |  |
| Nc1nnc2c(-c3ccccc3)[nH]nc2n1 | > 100 µM |  | > 100 µM | > 100 |  | > 100 µM | > 100 | > 100 µM |  |  |  |  |  |  |  |  |  |  |  |  |
